# Measured values published in ChEMBL document CHEMBL3885881, “DrugMatrix”.
# Species: Rattus norvegicus
# Experiment: DrugMatrix - Regimen: Daily Repeat
# Assay type: toxicity, organism-based, Sprague-Dawley
# Set-up: regimen Daily Repeat, gender Male, age 6-8 weeks
# Conditions: in vivo, po, route oral GAVAGE, vehicle 100 % WATER; for ABSOLUTE BASOPHIL / ABSOLUTE EOSINOPHIL / ABSOLUTE LYMPHOCYTE / ABSOLUTE MONOCYTE / ABSOLUTE SEGMENTED NEUTROPHIL / BASOPHIL / EOSINOPHIL / ERYTHROCYTE COUNT / HEMATOCRIT / HEMOGLOBIN / LEUKOCYTE COUNT / LYMPHOCYTE / MEAN CORPUSCULAR HEMOGLOBIN / MEAN CORPUSCULAR HEMOGLOBIN CONCENTRATION / MEAN CORPUSCULAR VOLUME / MONOCYTE / NEUTROPHIL / NUCLEATED RED BLOOD CELLS / PLATELET COUNT: tissue Blood; for ALANINE AMINOTRANSFERASE / ALBUMIN / ALKALINE PHOSPHATASE / ASPARTATE AMINOTRANSFERASE / BLOOD UREA NITROGEN / CARBON DIOXIDE / CHLORIDE / CHOLESTEROL / CREATINE PHOSPHOKINASE / CREATININE / GLUCOSE / LACTATE DEHYDROGENASE / LIPASE / PHOSPHORUS / POTASSIUM / SODIUM / TOTAL BILIRUBIN / TOTAL PROTEIN / URIC ACID: tissue Plasma
# [1] = 0 mg/kg, 72 h, dose level Control, time 3 day
# [2] = 0 mg/kg, 120 h, dose level Control, time 5 day
# [3] = 2 mg/kg, 72 h, dose level Low, time 3 day
structure (smiles),measurement,setting,value
C[C@]12C=CC(=O)C=C1CC[C@@H]1[C@@H]2[C@@H](O)C[C@@]2(C)[C@H]1CC[C@]2(O)C(=O)CO [PREDNISOLONE],ABSOLUTE BASOPHIL,[1],0 CELLS/uL
same,ABSOLUTE EOSINOPHIL,[1],24 CELLS/uL
same,ABSOLUTE LYMPHOCYTE,[1],13105 CELLS/uL
same,ABSOLUTE MONOCYTE,[1],76 CELLS/uL
same,ABSOLUTE SEGMENTED NEUTROPHIL,[1],2145 CELLS/uL
same,BASOPHIL,[1],0%
same,EOSINOPHIL,[1],0.17%
same,ERYTHROCYTE COUNT,[1],5.81 x10E6/uL
same,HEMATOCRIT,[1],35.6%
same,HEMOGLOBIN,[1],13.72 G/DL
same,LEUKOCYTE COUNT,[1],15.35 x10E3/uL
same,LYMPHOCYTE,[1],85.5%
same,MEAN CORPUSCULAR HEMOGLOBIN,[1],23.62 pg
same,MEAN CORPUSCULAR HEMOGLOBIN CONCENTRATION,[1],38.55 G/DL
same,MEAN CORPUSCULAR VOLUME,[1],61.23 fL
same,MONOCYTE,[1],0.5%
same,NEUTROPHIL,[1],13.83%
same,NUCLEATED RED BLOOD CELLS,[1],0 /100WBC
same,PLATELET COUNT,[1],1189.83 x10E3/uL
same,ALANINE AMINOTRANSFERASE,[1],48.67 u/L
same,ALBUMIN,[1],4.27 G/DL
same,ALKALINE PHOSPHATASE,[1],335 u/L
same,ASPARTATE AMINOTRANSFERASE,[1],86.5 u/L
same,BLOOD UREA NITROGEN,[1],14.33 mg/dL
same,CARBON DIOXIDE,[1],29.17 mmol/L
same,CHLORIDE,[1],99.83 MEQ/L
same,CHOLESTEROL,[1],71.83 mg/dL
same,CREATINE PHOSPHOKINASE,[1],506.83 u/L
same,CREATININE,[1],0.18 mg/dL
same,GLUCOSE,[1],162.17 mg/dL
same,LACTATE DEHYDROGENASE,[1],264.5 u/L
same,LIPASE,[1],9.67 u/L
same,PHOSPHORUS,[1],11.92 mg/dL
same,POTASSIUM,[1],6.55 MEQ/L
same,SODIUM,[1],141.53 MEQ/L
same,TOTAL BILIRUBIN,[1],0.18 mg/dL
same,TOTAL PROTEIN,[1],5.87 G/DL
same,URIC ACID,[1],1.67 mg/dL
same,ABSOLUTE BASOPHIL,[2],0 CELLS/uL
same,ABSOLUTE EOSINOPHIL,[2],25.33 CELLS/uL
same,ABSOLUTE LYMPHOCYTE,[2],15680 CELLS/uL
same,ABSOLUTE MONOCYTE,[2],92.33 CELLS/uL
same,ABSOLUTE SEGMENTED NEUTROPHIL,[2],2102.33 CELLS/uL
same,BASOPHIL,[2],0%
same,EOSINOPHIL,[2],0.17%
same,ERYTHROCYTE COUNT,[2],6 x10E6/uL
same,HEMATOCRIT,[2],35.55%
same,HEMOGLOBIN,[2],14.12 G/DL
same,LEUKOCYTE COUNT,[2],17.9 x10E3/uL
same,LYMPHOCYTE,[2],87.33%
same,MEAN CORPUSCULAR HEMOGLOBIN,[2],23.65 pg
same,MEAN CORPUSCULAR HEMOGLOBIN CONCENTRATION,[2],39.77 G/DL
same,MEAN CORPUSCULAR VOLUME,[2],59.52 fL
same,MONOCYTE,[2],0.5%
same,NEUTROPHIL,[2],12%
same,NUCLEATED RED BLOOD CELLS,[2],0.17 /100WBC
same,PLATELET COUNT,[2],1325.67 x10E3/uL
same,ALANINE AMINOTRANSFERASE,[2],56.17 u/L
same,ALBUMIN,[2],4.23 G/DL
same,ALKALINE PHOSPHATASE,[2],371.5 u/L
same,ASPARTATE AMINOTRANSFERASE,[2],91 u/L
same,BLOOD UREA NITROGEN,[2],15.33 mg/dL
same,CARBON DIOXIDE,[2],27.67 mmol/L
same,CHLORIDE,[2],99.5 MEQ/L
same,CHOLESTEROL,[2],66.5 mg/dL
same,CREATINE PHOSPHOKINASE,[2],518.5 u/L
same,CREATININE,[2],0.18 mg/dL
same,GLUCOSE,[2],143.33 mg/dL
same,LACTATE DEHYDROGENASE,[2],238.83 u/L
same,LIPASE,[2],9.33 u/L
same,PHOSPHORUS,[2],10.68 mg/dL
same,POTASSIUM,[2],6.5 MEQ/L
same,SODIUM,[2],141.88 MEQ/L
same,TOTAL BILIRUBIN,[2],0.18 mg/dL
same,TOTAL PROTEIN,[2],6 G/DL
same,URIC ACID,[2],1.63 mg/dL
same,ABSOLUTE BASOPHIL,[3],0 CELLS/uL
same,ABSOLUTE EOSINOPHIL,[3],0 CELLS/uL
same,ABSOLUTE LYMPHOCYTE,[3],13282 CELLS/uL
same,ABSOLUTE MONOCYTE,[3],183.67 CELLS/uL
same,ABSOLUTE SEGMENTED NEUTROPHIL,[3],1434.33 CELLS/uL
same,BASOPHIL,[3],0%
same,EOSINOPHIL,[3],0%
same,ERYTHROCYTE COUNT,[3],5.89 x10E6/uL
same,HEMATOCRIT,[3],36.9%
same,HEMOGLOBIN,[3],14.23 G/DL
same,LEUKOCYTE COUNT,[3],14.9 x10E3/uL
same,LYMPHOCYTE,[3],88.67%
same,MEAN CORPUSCULAR HEMOGLOBIN,[3],24.17 pg
same,MEAN CORPUSCULAR HEMOGLOBIN CONCENTRATION,[3],38.57 G/DL
same,MEAN CORPUSCULAR VOLUME,[3],62.63 fL
same,MONOCYTE,[3],1%
same,NEUTROPHIL,[3],10.33%
same,NUCLEATED RED BLOOD CELLS,[3],0 /100WBC
same,PLATELET COUNT,[3],1283.33 x10E3/uL
same,ALANINE AMINOTRANSFERASE,[3],48.33 u/L
same,ALBUMIN,[3],4.37 G/DL
same,ALKALINE PHOSPHATASE,[3],335.33 u/L
same,ASPARTATE AMINOTRANSFERASE,[3],82.67 u/L
same,BLOOD UREA NITROGEN,[3],15.67 mg/dL
same,CARBON DIOXIDE,[3],25.33 mmol/L
same,CHLORIDE,[3],101.33 MEQ/L
same,CHOLESTEROL,[3],64.67 mg/dL
same,CREATINE PHOSPHOKINASE,[3],495.33 u/L
same,CREATININE,[3],0.15 mg/dL
same,GLUCOSE,[3],167.67 mg/dL
same,LACTATE DEHYDROGENASE,[3],139 u/L
same,LIPASE,[3],9.67 u/L
same,PHOSPHORUS,[3],12.63 mg/dL
same,POTASSIUM,[3],5.96 MEQ/L
same,SODIUM,[3],144.8 MEQ/L
same,TOTAL BILIRUBIN,[3],0.17 mg/dL
same,TOTAL PROTEIN,[3],6.1 G/DL
same,URIC ACID,[3],1.97 mg/dL
